Patent US9486434B2, “Method for delivery and use of isothiocyanates for prophylaxis and/or therapy of bladder cancer” (Health Research Inc., priority 2010, dated 2016)
Read-outs that look alike come from different tables or passages of the source.

Assays:
[1] = Dissociation of NAC-AITC in phosphate buffer (HPLC); format: physicochemical; conditions: pH 7.4, 37° C.
Experimental: FIG. 11. Dissociation of NAC-AITC. NAC-AITC at 100 μM was freshly prepared in 20 mM sodium phosphate buffer (pH 7.4) containing 1% DMSO and incubated at 37° C. for 0, 0.5, 1, 2, 3, 4, 5 and 24 h. At each time point, an aliquot of the solution was analyzed for remaining NAC-AITC by HPLC. Each value is a mean±SD (n=3).
Measurement of dissociation of NAC-AITC. The assay was based on a known protocol. Briefly, a solution of NAC-AITC was prepared as rapidly as possible by dilution of 0.2 ml of 5 mM NAC-AITC freshly prepared in 20 mM sodium phosphate buffer (pH 7.4): DMSO (1:1) with 20 mM sodium phosphate buffer (pH 7.4) to 10 ml, resulting in a 0.1 mM NAC-AITC solution in 1% DMSO. An aliquot (0.05 ml) was immediately analyzed by HPLC; the remainder of the solution was incubated at 37° C. on a shaker, and an aliquot (0.05 ml) was analyzed by HPLC at different time points up to 24 h. The HPLC condition was the same as used in the urine analysis described above. A plot of the conjugate peak area remaining versus time was generated to determine the half-time of decomposition.

[2] = Storage stability at room temperature; format: physicochemical; conditions: data not shown
[3] = 24-h urinary recovery; format: in vivo; conditions: female, F344, rat, urine, po, 300 μmol/kg, single oral dose 300 μmol/kg
Experimental: Measurement of pharmacokinetic profiles of AITC and NAC-AITC. The experiment was carried out in female F344 rats since these animals were used in the rat bladder cancer model described above. Groups of three to five rats (8-9 weeks of age) were given a single oral dose of AITC, NAC-AITC or vehicles. AITC was administered in 0.5 ml of soy oil per rat, whereas NACAITC was dissolved in DMSO and diluted with water and administered in 0.2 ml volume (5% DMSO) per rat. The rats were immediately transferred to metabolism cages (one rat per cage), with free access to food and water, for urine collection over four consecutive periods of 0-1.5, 1.5-3, 3-6 and 6-24 h. […]
AITC and NAC-AITC contents in the plasma and urine were determined using the high-performance liquid chromatography (HPLC)-based cyclocondensation assay, and are expressed as AITC equivalent or NAC-AITC equivalent. […]
To specifically measure urinary levels of NAC-AITC, groups of five rats were dosed orally with either AITC or NAC-AITC at 300 μmol/kg and immediately moved to metabolism cages (one rat per cage) for 24 h urine collection. […] The compounds were monitored at both 230 nm (AITC) and 254 nm (its metabolites). […] The fraction corresponding to NAC-AITC was collected and quantified by the cyclocondensation assay; its identity was confirmed by infusion electrospray ionization mass spectrometry.

[4] = system: normal human bladder epithelial cells (HUC); experiment: MTT cell growth assay, normal bladder epithelial cells; format: cell-based; conditions: 72-h treatment
Experimental: FIG. 3. The effect of AITC on cell survival and proliferation. AITC was evaluated at the indicated concentrations in human bladder cancer UM-UC-3 cells, rat bladder cancer AY-27 cells, and normal human bladder epithelial cells (HUC). A. Cell growth inhibition, measured by MTT assay, 72-h AITC treatment. IC50 was calculated from nonlinear regression curve fit. B. Cell cycle arrest (□, subG1; ? , G1; ? , 5; ▪, G2/M), measured by flow cytometry, 24 h AITC treatment. C. Apoptosis induction, measured by an ELISA assay, 24 h AITC treatment. Mean±SE, n=3-6), *P<0.05.

[5] = system: UM-UC-3 cells; experiment: Mitochondria-mediated apoptosis in UM-UC-3 cells (Δψm, cytochrome c, TUNEL); format: cell-based, human
Experimental: FIG. 4. Effect of AITC on mitosis, tubulin expression and apoptosis in human bladder cancer UM-UC-3 cells. Cells were treated with vehicle or AITC for 24 h (each numerical value is mean±SD). A. Flow cytometry analysis for cell cycle arrest. B. Wright-Giemsa staining for counting mitotic figures. Arrows point to cells in mitosis or mitotic catastrophe. C. Immunofluorescent staining of microtubules (green color) and DNA staining with DAPI (blue color). D. Western blotting of tubulins (GAPDH as a loading control). E. Loss of mitochondrial transmembrane potential (Δψm) measured by flow cytometry. F. Western blotting of caspase-9 and caspase-3 (GAPDH as a loading control). G. Apoptotic cells (TUNEL cells) measured by flow cytometry. Cells in F and G were co-treated with or without 20 microM Z-LEHD-FMK (a caspase-9 inhibitor).

[6] = system: cyclooxygenase-2 (Cox-2) in human bladder cancer HT1376 cells; experiment: Western blot analysis of Cox-2 in HT1376 cells; format: cell-based; conditions: 24 h, cells overexpressing Cox-2
Experimental: FIG. 5. The effects of AITC and SF on cyclooxygenase-2 (Cox-2) expression in human bladder cancer cells. Human bladder cancer HT1376 cells that over express Cox-2 were treated with AITC or SF at the indicated concentrations for 24 h and then harvested for Western blot analysis of Cox-2. GAPDH is used as a loading control.

[7] = system: tubulin; experiment: Tubulin polymerization in vitro assay; format: biochemical; conditions: result not shown

| half-time of dissociation [1] [h] | stability when kept dry [2] | dose excreted ([3]; HPLC fraction, read-out: 24-h urinary recovery, Recovered as NAC-AITC, % of adminstered dose) [%] | dose excreted ([3]; read-out: 24-h urinary recovery, Recovered as NAC-AITC, % of total recovery) [%] | Structure (SMILES) | IC50 [4] [µM] | TUNEL-positive cells ([5]; 24 h, flow cytometry) | mitochondrial transmembrane potential ([5]; 24 h, flow cytometry) | cytochrome c release ([5]; result not shown) | effect on Cox-2 expression [6] | rate of tubulin polymerization [7] |
| --- | --- | --- | --- | --- | --- | --- | --- | --- | --- | --- |
| ~12 | at least 16 months | 47.3 ± 1.8 | 83.3 | C=CCNC(=S)SC[C@H](NC(C)=O)C(=O)O [NAC-AITC, N-acetyl-S—(N-allylthiocarbamoyl)cysteine] |  |  |  |  |  |  |
|  |  |  |  | C=CCN=C=S [AITC, allyl isothiocyanate] | 69.4 | formation of TUNEL-positive cells | caused a loss of mitochondrial transmembrane potential | release of cytochrome c from mitochondria to cytoplasm | not detectable | no effect |
